The source of these data is patent publication US10239825B2, “Ketamine derivatives” (Auckland Uniservices Limited, priority 2013, dated 2019).

For series [1] the following is noted: in vivo; cited from earlier work.
The test system of series [2] is adult female Sprague-Dawley rats. Briefly: rat infusion study: pedal withdrawal reflex PWR = 1 (analgesic effect). It counts as in vivo. Conditions: for minimal effective dose: Rattus norvegicus, iv, total drug administered to achieve PWR = 1, i.v. infusion. Here is the method: (§1) All animal experiments were conducted at the Ruakura Research Centre, Hamilton, New Zealand, using experimental protocols reviewed and approved by the Ruakura Animal Ethics Committee (ethics ref 12604).
(§2) Following acquisition of baseline physiologic parameters (heart rate, respiratory rate, PWR, and righting reflex (RR)) adult female Sprague-Dawley rats of approximately 350-450 g were put under non-traumatic restraint and the marginal vein of the tail was cannulated. Ketamine or a compound of the invention at 10 mg/ml was administered via a minibore extension tube adequately secured to the tail. Infusions were commenced at a rate (weight-adjusted) to deliver 20 mg/kg/min initially (until the pedal withdrawal reflex score PWR=1), then were reduced to a rate of 6.7 mg/kg/min. Infusion rate was then titrated in an up-and-down fashion to maintain dorsal recumbency and a PWR=1 to 10 minutes before cessation. Three rats were used in each study, with each group of rats also acting as their own ketamine control. The order of study drug administration was determined by prior odds/evens randomisation with a recovery interval of at least one hour afforded between experiments. PWR and RR were recorded at 1 minute intervals throughout. The times from cessation of infusion to return of righting reflex (RRR), and from cessation of infusion to the animals displaying independent locomotion (walk) were recorded.
Pedal Withdrawal Reflex (PWR) Scoring:
Nociceptive testing in animals was conducted via 1 second application of constant pressure (firm digital pressure) over the forepaw of the animal. Pedal withdrawal reflex testing is primarily used to assess analgesic effect, and responses are graded accordingly: 0, absent; 1, flicker; 2, moderate withdrawal; 3, fast withdrawal; 4, Fast withdrawal with cry/preceding apnoea (modified from Buitrago, S. et al. J. Amer. Assoc. Lab. Animal. Sci. 2008, 47, 11-17).

For series [3] the test system is unchanged. Nature of the series: rat infusion study: loss/recovery of righting reflex and walk (anaesthetic effect). In kind it is in vivo. Conditions: for minimal effective dose: Rattus norvegicus, iv, total drug administered to achieve loss of righting reflex, i.v. infusion, read-out: LRR Dose. The procedure:
as §1, §2
Loss of Righting Reflex (LRR):
This is primarily used to assess anaesthetic hypnotic effect. Righting reflex is judged absent when the rat fails to right from a position of dorsal recumbency to a position of sternal recumbency on three attempts performed in rapid succession. Dose to LRR is termed effective potency.

Series [4] shares this test system. The description is as above. It counts as in vivo. To be noted: exploratory, mostly single-animal evaluations.
For series [5] the following is noted: pharmacological, analgesic and anaesthetic properties; cited from earlier work.
Where [6] appears, read: average over the various experiments.
Setting [7] is: range over the various experiments.

Take `CNC1(c2ccccc2Cl)CCCCC1=O` (racemic) [rac-ketamine, (2-o-Chlorophenyl)-2-methylamino-cyclohexanone, reference compound]: in series [1], the half-life (as a rule, the time needed for the level to fall by half in the phase considered) was 2 to 3 h. Also, in series [2], the minimal effective dose came out at 26 ± 1 mg/kg. Also, in series [2] (setting [6]), the “Time to PWR = 1, Average” value is 76 ± 9 s. For the same molecule, the “Total dose to PWR = 1” value in series [2] (average over the various experiments (Table 4 row r8, second line so named)) is on record as 26 ± 4 mg/kg. In addition, in series [2] (setting [7]), the “Time to PWR = 1, Range” value fell in the range of 60 to 95 s. Besides, the “Total dose to PWR = 1” value in series [2] (range over the various experiments (Table 4 row r8, second line so named)) is 21 to 34 mg/kg. Besides, the minimal effective dose in series [3] came out at 20 ± 1 mg/kg. Moreover, in series [3] (setting [6]), the “Time to RRR, Average” value was found to be 1212 ± 318 s; the “Time to achieve LRR, Average” value came to 61 ± 8 s; the “Time to walking, Average” value stood at 1709 ± 400 s. The “Total dose to LRR, Average” value in series [3] (average over the various experiments (Table 4 row r6)) is reported as 21 ± 7 mg/kg. Moreover, in series [3] (setting [7]), the “Time to RRR, Range” value was 863 to 2040 s; the “Time to achieve LRR, Range” value was 51 to 75 s; the “Time to walking, Range” value lay in the range of 1100 to 2340 s. Moreover, in series [3] (range over the various experiments (Table 4 row r6)), the “Total dose to LRR, Range” value lay within 17 to 27 mg/kg.

With `COC(=O)CCCCN(C)C1(c2ccccc2Cl)CCCCC1=O` (centres unmarked) [compound 21, Methyl 5-((1-(2-chlorophenyl)-2-oxocyclohexyl)(methyl)amino)pentanoate], the minimal effective dose in series [2] was 148 mg/kg. Also, in series [2] (ratio compound/ketamine), the “PWR = 1 Dose, head-to-head ratio to ketamine” value worked out at 5.29 and the “PWR = 1 Time, head-to-head ratio to ketamine” value was 5.30. For the same molecule, the “PWR = 1 Time” value in series [2] (time from onset of i.v. infusion to PWR = 1) amounted to 435 s. In series [3], the minimal effective dose was 145 mg/kg. For the same molecule, the “potency (in words)” value in series [3] (rat infusion study, discussion) was “less potent”. In series [3] (ratio compound/ketamine), the “LRR Dose, head-to-head ratio to ketamine” value is listed as 7.25; the “LRR Time, head-to-head ratio to ketamine” value is 7.37; the “Walk Time, head-to-head ratio to ketamine” value worked out at 0.09. For the same molecule, the “Walk Time” value in series [3] (time from end of infusion to independent locomotion) worked out at 201 s. In addition, the “RRR Time” value in series [3] (time from end of infusion to recovery of righting reflex) stood at 0 s. Moreover, the “LRR Time” value in series [3] (time from onset of i.v. infusion to loss of righting reflex, 20 mg/kg/min initially) is 420 s. The “sedative effect (in words)” value in series [4] is “weak sedative activity”.

Consider `CN[C@]1(c2ccccc2Cl)CCCCC1=O` [(S)-Ketamine], for which the “potency relative to the racemate” value in series [5] was “about twice as potent”.
